Reference: ChEMBL document CHEMBL5260859, “Discovery and structure-activity relationship study of 2-piperazinyl-benzothiazole derivatives as potent and selective PPARδ agonists” (Bioorg Med Chem, 2023)

How the values were obtained:
Type in all cases: cell-based
[1] = molecular target: T1, Peroxisome proliferator-activated receptor alpha (Homo sapiens) (UniProt Q07869); assay: Agonist activity at Gal4-fused human PPAR-alpha ligand binding domain expressed in CHO-K1 cells assessed as receptor transactivation incubated for 24 to 48 hrs by luciferase reporter gene assay relative to control; details: time lower 24.0 hrs, time upper […]
T1 sequence (whole entry): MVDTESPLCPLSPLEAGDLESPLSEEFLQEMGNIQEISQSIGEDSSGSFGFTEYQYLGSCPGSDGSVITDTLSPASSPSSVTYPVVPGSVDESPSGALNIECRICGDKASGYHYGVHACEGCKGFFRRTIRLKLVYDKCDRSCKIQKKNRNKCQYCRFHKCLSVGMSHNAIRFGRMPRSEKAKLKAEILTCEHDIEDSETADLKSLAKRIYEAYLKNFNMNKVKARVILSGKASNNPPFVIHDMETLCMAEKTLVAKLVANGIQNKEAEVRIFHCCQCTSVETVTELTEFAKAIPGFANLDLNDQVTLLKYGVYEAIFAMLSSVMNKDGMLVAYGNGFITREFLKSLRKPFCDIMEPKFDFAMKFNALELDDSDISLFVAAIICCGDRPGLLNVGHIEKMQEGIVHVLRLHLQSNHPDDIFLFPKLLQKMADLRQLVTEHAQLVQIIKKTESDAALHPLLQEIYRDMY

Mus musculus [2] = organism: Mus musculus; assay: Selectivity ratio of EC50 for agonist activity at Gal4-fused mouse PPAR-gamma ligand binding domain expressed in CHO-K1 cells to EC50 for agonist activity at Gal4-fused mouse PPAR-delta ligand binding domain expressed in CHO-K1 cells
Mus musculus [3] = organism: Mus musculus; assay: Selectivity ratio of EC50 for agonist activity at Gal4-fused mouse PPAR-alpha ligand binding domain expressed in CHO-K1 cells to EC50 for agonist activity at Gal4-fused mouse PPAR-delta ligand binding domain expressed in CHO-K1 cells
[4] = molecular target: T2, Peroxisome proliferator-activated receptor alpha (Mus musculus) (UniProt P23204); assay: Agonist activity at Gal4-fused mouse PPAR-alpha ligand binding domain expressed in CHO-K1 cells assessed as receptor transactivation incubated for 24 to 48 hrs by luciferase reporter gene assay relative to control; details: time lower 24.0 hrs, time upper […]
T2 sequence (whole entry): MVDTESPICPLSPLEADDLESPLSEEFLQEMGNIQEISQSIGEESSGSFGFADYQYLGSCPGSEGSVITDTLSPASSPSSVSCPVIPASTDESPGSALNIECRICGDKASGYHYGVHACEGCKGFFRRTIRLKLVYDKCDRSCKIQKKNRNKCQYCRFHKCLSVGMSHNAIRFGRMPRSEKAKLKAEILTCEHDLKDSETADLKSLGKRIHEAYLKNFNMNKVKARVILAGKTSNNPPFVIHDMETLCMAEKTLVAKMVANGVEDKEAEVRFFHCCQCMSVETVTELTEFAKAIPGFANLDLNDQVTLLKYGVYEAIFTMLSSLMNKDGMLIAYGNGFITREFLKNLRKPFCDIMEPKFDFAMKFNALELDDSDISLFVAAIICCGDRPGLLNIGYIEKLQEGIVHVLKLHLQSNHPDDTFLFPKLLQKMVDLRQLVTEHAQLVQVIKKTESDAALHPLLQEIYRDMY

[5] = molecular target: T3, Peroxisome proliferator-activated receptor alpha (Mus musculus, UniProt P23204); assay: Agonist activity at Gal4-fused mouse PPAR-alpha ligand binding domain expressed in CHO-K1 cells assessed as receptor transactivation incubated for 24 to 48 hrs by luciferase reporter gene assay
T3 sequence (P23204 whole entry): T2 sequence (whole entry)

Emax [1]	Emax [4]	EC50 [5]	SMILES	Ratio EC50 (Mus musculus [2])	Ratio EC50 (Mus musculus [3])
6.3%	1.7%	3.7 µM	Cc1cc(CC(=O)O)cc(CN2CCN(c3nc4ccc(C(F)(F)F)cc4s3)[C@H](C)C2)c1	74	152
6.3%	9%	3.9 µM	Cc1cc(CC(=O)O)cc(CN2CCN(c3nc4ccc(C(F)(F)F)cc4s3)[C@@H](C)C2)c1	69	100
